Test results reported in patent US20250195498A1, “INHIBITOR OF CELLULAR PURINE NUCLEOTIDE SALVAGE PATHWAY ENZYME FOR USE IN THE TREATMENT AND/OR PREVENTION OF HELICOBACTER PYLORI INFECTION AND/OR DISEASE ASSOCIATED WITH SUCH INFECTION AND PHARMACEUTICAL COMPOSITION COMPRISING THE SAME” (UNIWERSYTET WARSZAWSKI, priority 2022, published 2025).
“And” between values parts separate entries of the source, which are not always exact repeats. Identical values can stand only once. Like-named read-outs stand apart in the source and are kept apart here.

Experiments:
H. pylori strain 26695 = experiment: Growth curve method / MIC in liquid culture, strain 26695; format: cell-based, Helicobacter pylori; settings: strain 26695; for MIC: read-out: MIC; for % inhibition of H. pylori cell cultures at maximum inhibitor solubility: at maximum solubility in 3.5% DMSO
Protocol: The representative PNP inhibitor from H. pylori included in this study was immucillin A. The experiment was conducted using the growth curve method (two-fold serial dilutions in liquid medium). The tested H. pylori strains were cultured in Petri dishes with BHI solid medium supplemented with 10% FBS and 1% H. pylori Selective Supplement antibiotic kit, in anaerostats under microaerophilic conditions (5% 02, 10% CO2, 85% N2) at 37° C. for 3 days. Liquid culture of H. pylori was conducted overnight with shaking at 37° C. under microaerophilic conditions in BHI medium supplemented with 10% FBS and 1% H. pylori Selective Supplement antibiotic kit. Subsequently, for the essential experiment of determining the minimum inhibitory concentration (MIC), double strengthened liquid BHI medium was prepared, that is, supplemented with 20% FBS and a 2% set of H. pylori Selective Supplement antibiotics.
Bacterial proliferation inhibition experiments were carried out in 24-deep-well 2 ml flat-bottomed plates at a solution volume per well of 0.5 ml. In a single well, double strengthened (relative to the concentration planned for testing) solutions of the test inhibitor and double strengthened liquid BHI medium inoculated with H. pylori (10^4-10^5 CFU/ml in the final volume in the well, corresponding to the optical density of the culture OD600=0.05) were mixed together in a 1:1 ratio.
Kanamycin at a concentration of 25 μg/ml (Irie et al., 1997) was used as a positive control, while Mili-Q deionized water and BHI medium not inoculated with bacteria were used as negative controls. Plates were shaken at 37° C., under microaerophilic conditions. […] After 24 hours, the OD600 of samples containing the negative control, i.e. with Mili-Q deionized water, was about 1.2-1.4, corresponding to a bacterial concentration of about […].
In addition, the method proposed by Knezevic et al. (2018) was used to check whether the observed OD600 was from live bacterial cells. For this purpose, an equal volume of Christensen's double strength urea broth (that is, containing twice the concentration of all components) was added to the wells after incubation, and the plates were additionally incubated for 4 hours in an oxygen atmosphere at 37° C. During incubation, in wells with urease produced by live bacteria, urea is converted to ammonia and carbon dioxide, changing the pH of the solution and thus the colour of the phenol red indicator contained in the medium (from orange to purple).
All experiments were performed in triplicate.
The experiments were carried out using the growth curve method as described in Example 3, and the results obtained for two of the compounds tested are shown in FIG. 5. As the water solubility of the compounds tested, with the exception of 2,6-diCl-Pu, is relatively poor, two experiments were carried out: the first with the maximum concentration possible under the experimental conditions in aqueous solution with a small admixture of DMSO, and the second with higher concentrations that led to partial precipitation of the compound.
The antibacterial activity of two compounds, mefloquine (in the form of hydrochloride) and quinine, described in the literature as potent in vitro inhibitors of the PNP enzyme from Plasmodium falciparum (Dziekan et al., 2019), was tested. Using a two-fold serial dilution method in liquid medium (as described in Example 3), the MIC values for mefloquine and quinine were determined against clinical H. pylori strains resistant to MTZ, CLR and MTZ+CLR (M26, M91, M92 and M93), as well as the reference H. pylori strain 26695. Four clinical H. pylori strains isolated from adults, from primary infections (the subjects had never previously been treated against H. pylori infection) were tested. These strains come from the collection of the Department of Microbiology of the Medical University of Wroclaw and were obtained due to collaboration with Prof. Grażyna Gościniak, MD, PhD. […]

[1] = molecular target: T1, PNP from H. pylori strain 26695 (Helicobacter pylori, UniProt P56463); experiment: Inhibition of PNP from H. pylori, spectrophotometric phosphorolysis assay; format: biochemical; settings: 7-methylguanosine substrate; for Ki: 25° C., pH 7.0, 50 mM phosphate
T1 construct: made in house; host or cells: E. coli
T1 sequence (P56463 whole entry): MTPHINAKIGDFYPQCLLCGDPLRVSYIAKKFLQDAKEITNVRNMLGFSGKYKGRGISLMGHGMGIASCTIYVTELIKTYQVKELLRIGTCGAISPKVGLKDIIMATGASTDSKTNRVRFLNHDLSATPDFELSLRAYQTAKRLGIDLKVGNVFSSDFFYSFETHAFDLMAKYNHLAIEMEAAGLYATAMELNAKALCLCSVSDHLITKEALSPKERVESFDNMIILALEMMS
Text: The specific activity of PNP is usually determined using inosine as a substrate, in an assay in which the phosphorolysis product, hypoxanthine, is oxidized to uric acid in a reaction catalysed by xanthine oxidase. However, in the inhibition assay of PNP from H. pylori strain 26695, 7-methylguanosine (m^7Guo) and guanosine (Guo) were used as nucleoside substrates to avoid potential inhibition of xanthine oxidase by the test compounds. Phosphorolysis of these two substrates can be observed using a direct spectrophotometric method in a known manner.
Enzymatic activity was studied in a quartz cuvette with an optical path length of 1 cm or 0.5 cm. The absorbance of the reaction mixture, at the observation wavelength, never exceeded 1.2. The reaction volume was 1 ml or 1.4 ml in cuvettes with optical path lengths of 1 cm and 0.5 cm, respectively. The reaction mixture contained 50 mM Hepes/NaOH buffer, pH 7.0, 50 mM phosphate buffer, pH 7.0 (unless otherwise indicated), nucleoside substrate and inhibitor (with the latter not added to the reference/control reactions). Reactions were usually initiated by adding the enzyme to a cuvette containing the other reaction components. However, in cases where possible slow formation of an inhibitor-enzyme complex was checked, a second variant was also used involving incubation of the enzyme in a reaction mixture containing the inhibitor but lacking the substrate, 7-methylguanosine, and initiation of the reaction by adding this substrate.
In order to determine the inhibition constants and determine the molecular mechanism of inhibition, equations describing different mechanisms of inhibition were fitted to the obtained experimental data. GraphPad Prism 8 program was used. The model best describing the obtained data was selected based on the sum of squares of deviations using the F test for models with different number of parameters and the Akaike criterion (AIC) for models with the same number of parameters.
The following equations were used to describe competitive inhibition, characterized by the inhibition constant Kic, [1], uncompetitive, characterized by the inhibition constant Kiu, [2], non-competitive, characterized by the inhibition constant Kin, [3], and mixed, characterized by the inhibition constants Kiu and Kic, [4] (Segel, 1993):
The last equation can also be represented in the following form, as used by GraphPad Prism software, where Kiu=alpha Kic:
Immucillin A was chosen as the most promising one for potential pharmacological use in combating H. pylori infection because immucillin A has an amino substituent at position 6 of the 9-dazapurine ring, while PNP found in the human body requires a substituent at this position having electron-pairs-hydrogen bond acceptors, such as a substituent in the form of a keto group, to strongly bind the ligand. According to the invention, it is therefore believed that immucillin A will not interact with the host PNP, and thus allow selective inhibition of the PNP from H. pylori. Using the methods described above, the effect of immucillin A on the rate of the 7-methylguanosine (m^7Guo) phosphorolysis reaction catalysed by PNP from H. pylori was examined (FIG. 1). Since it is known (Schramm, 2018) that immucillins form a strongly bound complex with the enzyme relatively slowly, reactions were initiated by adding the substrate, m^7Guo, to a cuvette in which the enzyme was incubated with the inhibitor, as described in Example 1.
Data analysis was also performed as described in this Example. The range of substrate concentrations tested was 10-200 μM or 10-280 μM (shown in FIG. 4), and the range of inhibitor concentrations was chosen according to the observed degree of inhibition of the reaction, in order to obtain a significant degree of inhibition that allows determination of the inhibition mechanism and determination of inhibition constants (see FIG. 4). […]

[2] = mixed type model, read-out: Kic
[3] = mixed type model, read-out: Kiu
[4] = non-competitive model, read-out: Kin
[5] = uncompetitive model, read-out: Kiu

Structure (SMILES)	MIC (H. pylori strain 26695; Helicobacter pylori)	% inhibition of H. pylori cell cultures at maximum inhibitor solubility (H. pylori strain 26695)	Ki [1, 2]	Ki [1, 3]	Ki [1, 4]	alpha = Kiu/Kic ([1]; mixed type model)	Ki [1, 5]	inhibition at 350 µM (H. pylori strain 26695; Helicobacter pylori, 350 μM (91 μg/ml), inhibitor partially precipitated, read-out: % inhibition of H. pylori cell cultures)	MIC (H. pylori strain 26695; Helicobacter pylori, inhibitor partially precipitated, actual dissolved concentration lower)
Clc1nc(Cl)c2[nH]cnc2n1 [2,6-diCl-Pu, 2,6-dichloropurine]	473 µg/mL and 2500 µM	93%	–	–	–	–	–	–	–
Clc1nc(Cl)c2[nH]cnc2n1 [2,6-dichloropurine]	–	–	20 ± 4.9 µM	23.5 ± 3.5 µM	22.2 ± 1.4 µM	1.17 ± 0.44	–	–	–
c1ccc(CSc2ncnc3nc[nH]c23)cc1 [6-benzylthiopurine]	–	–	7.5 ± 1.3 µM	8.1 ± 0.7 µM	7.9 ± 0.4 µM	1.07 ± 0.27	–	–	–
Clc1nc(OCc2ccccc2)c2[nH]cnc2n1 [6BnO-2Cl-Pu, 6-benzyloxy-2-chloropurine]	–	35%	18.3 ± 7.3 µM	4.6 ± 0.5 µM	6.5 ± 0.4 µM	0.25 ± 0.12	3.8 ± 0.3 µM	75%	–
Clc1nc(SCc2ccccc2)c2[nH]cnc2n1 [6BnS-2Cl-Pu, 6-benzylthio-2-chloropurine]	–	92%	13.2 ± 10.7 µM	2.1 ± 0.3 µM	–	0.16 ± 0.15	1.8 ± 0.2 µM	–	69 µg/mL and 250 µM
